Results: patent US7635572B2, “Methods for conducting assays for enzyme activity on protein microarrays” (Life Technologies Corporation, priority 2004, dated 2009)
Like-named read-outs stand apart in the source and are kept apart here.

Tests used:
Test in all cases: Further analysis of a plurality of inhibitors and a plurality of kinases on microarray (Example IX, Table 5);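 also: inhibition of each kinase by the inhibitors is given as a qualitative level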;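 as to Inhibition level, DAPK2: level 0 no or unclear inhibition to Level 2 substantial inhibition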;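 as to Inhibition level, DYRK2: level 0 none or unclear Level 1 marginal Level 2 substantial inhibition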;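 as to Inhibition level, STK6: level 0 no or unclear inhibition to Level 2 substantial inhibition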;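 as to Inhibition level, TGFBR2: level 0 none or unclear then 1 little or marginal then 2 substantial inhibition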
Assay type in all cases: biochemical
[1] = molecular target: T1, plurality of kinases (Table 5) (Homo sapiens, UniProt Q99759); conditions: plate A1
T1 sequence (Q99759 1-626): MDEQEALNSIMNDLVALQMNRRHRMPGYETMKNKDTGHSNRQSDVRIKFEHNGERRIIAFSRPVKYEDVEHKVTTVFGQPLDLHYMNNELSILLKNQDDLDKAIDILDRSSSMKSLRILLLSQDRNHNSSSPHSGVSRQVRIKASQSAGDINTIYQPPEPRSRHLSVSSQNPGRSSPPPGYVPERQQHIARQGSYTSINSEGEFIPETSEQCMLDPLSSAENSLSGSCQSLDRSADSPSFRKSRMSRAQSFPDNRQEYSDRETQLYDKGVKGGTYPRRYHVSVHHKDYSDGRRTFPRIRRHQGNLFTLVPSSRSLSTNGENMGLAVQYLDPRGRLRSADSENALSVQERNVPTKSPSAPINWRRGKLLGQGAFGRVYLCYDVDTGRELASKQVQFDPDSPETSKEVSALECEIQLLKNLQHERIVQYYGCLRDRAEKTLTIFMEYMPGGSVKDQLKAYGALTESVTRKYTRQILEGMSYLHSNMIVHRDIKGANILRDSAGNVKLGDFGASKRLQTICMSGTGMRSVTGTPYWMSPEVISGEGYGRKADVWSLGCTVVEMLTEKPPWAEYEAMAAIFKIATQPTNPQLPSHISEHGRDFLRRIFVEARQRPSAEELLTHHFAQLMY

[2] = molecular target: plurality of kinases (Table 5) (Homo sapiens, UniProt P37173); conditions: plate C7
[3] = molecular target: T2, plurality of kinases (Table 5) (Homo sapiens, UniProt Q92630); conditions: plate D11
T2 sequence (Q92630 1-601): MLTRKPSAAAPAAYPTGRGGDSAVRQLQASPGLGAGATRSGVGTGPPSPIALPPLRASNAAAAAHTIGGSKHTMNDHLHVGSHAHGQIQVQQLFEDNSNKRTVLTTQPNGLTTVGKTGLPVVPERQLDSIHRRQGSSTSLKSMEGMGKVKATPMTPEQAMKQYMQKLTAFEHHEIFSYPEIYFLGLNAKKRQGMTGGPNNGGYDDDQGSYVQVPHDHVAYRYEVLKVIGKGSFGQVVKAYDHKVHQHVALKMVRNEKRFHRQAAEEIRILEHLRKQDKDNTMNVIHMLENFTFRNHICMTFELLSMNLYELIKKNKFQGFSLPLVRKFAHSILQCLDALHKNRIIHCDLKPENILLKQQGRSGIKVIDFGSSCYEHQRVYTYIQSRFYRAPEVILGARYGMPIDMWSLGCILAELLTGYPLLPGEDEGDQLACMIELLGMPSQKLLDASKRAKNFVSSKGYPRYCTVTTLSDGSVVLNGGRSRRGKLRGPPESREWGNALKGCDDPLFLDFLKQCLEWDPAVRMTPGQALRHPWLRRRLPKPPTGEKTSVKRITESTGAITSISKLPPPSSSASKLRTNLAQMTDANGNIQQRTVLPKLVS

[4] = molecular target: T3, plurality of kinases (Table 5) (Homo sapiens, UniProt O14965); conditions: plate C6
T3 sequence (O14965 1-403): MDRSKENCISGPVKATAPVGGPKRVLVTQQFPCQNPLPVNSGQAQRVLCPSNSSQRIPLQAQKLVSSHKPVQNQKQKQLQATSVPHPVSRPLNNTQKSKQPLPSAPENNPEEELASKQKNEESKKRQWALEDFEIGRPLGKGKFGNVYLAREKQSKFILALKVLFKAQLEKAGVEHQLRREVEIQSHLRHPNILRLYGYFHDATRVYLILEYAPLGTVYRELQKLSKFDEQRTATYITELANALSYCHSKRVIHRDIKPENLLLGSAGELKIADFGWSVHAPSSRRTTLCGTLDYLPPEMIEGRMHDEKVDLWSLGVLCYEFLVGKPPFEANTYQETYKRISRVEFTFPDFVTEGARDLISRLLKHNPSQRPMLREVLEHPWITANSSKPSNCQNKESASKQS

[5] = molecular target: plurality of kinases (Table 5) (Homo sapiens, UniProt O75716); conditions: plate C3
[6] = molecular target: plurality of kinases (Table 5) (Homo sapiens, UniProt P68400)
[7] = molecular target: plurality of kinases (Table 5) (Homo sapiens, UniProt Q9UIK4); conditions: plate H3
[8] = molecular target: T4, plurality of kinases (Table 5) (Homo sapiens, UniProt P51813); conditions: plate B12; inhibitor 100 uM
T4 sequence (P51813 1-675): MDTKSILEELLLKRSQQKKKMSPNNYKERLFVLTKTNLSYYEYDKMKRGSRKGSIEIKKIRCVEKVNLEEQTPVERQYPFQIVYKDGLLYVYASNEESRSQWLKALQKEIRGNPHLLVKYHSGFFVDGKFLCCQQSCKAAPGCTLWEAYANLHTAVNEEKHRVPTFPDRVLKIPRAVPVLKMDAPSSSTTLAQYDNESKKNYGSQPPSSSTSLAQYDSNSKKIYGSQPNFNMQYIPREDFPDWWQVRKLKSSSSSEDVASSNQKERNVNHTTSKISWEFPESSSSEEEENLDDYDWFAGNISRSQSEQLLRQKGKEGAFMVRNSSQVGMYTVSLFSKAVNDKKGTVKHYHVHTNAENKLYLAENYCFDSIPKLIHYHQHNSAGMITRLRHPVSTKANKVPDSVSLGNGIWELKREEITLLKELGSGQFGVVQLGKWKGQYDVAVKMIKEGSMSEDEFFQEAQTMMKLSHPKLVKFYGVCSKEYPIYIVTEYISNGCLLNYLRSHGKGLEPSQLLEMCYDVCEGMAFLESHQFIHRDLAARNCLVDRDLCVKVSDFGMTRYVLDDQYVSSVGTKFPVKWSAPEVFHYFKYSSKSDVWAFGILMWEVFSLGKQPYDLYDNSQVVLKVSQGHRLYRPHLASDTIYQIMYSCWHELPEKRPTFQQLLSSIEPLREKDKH

plurality of kinases (Table 5) (Homo sapiens, UniProt Q9UIK4), sequence (Q9UIK4 whole entry): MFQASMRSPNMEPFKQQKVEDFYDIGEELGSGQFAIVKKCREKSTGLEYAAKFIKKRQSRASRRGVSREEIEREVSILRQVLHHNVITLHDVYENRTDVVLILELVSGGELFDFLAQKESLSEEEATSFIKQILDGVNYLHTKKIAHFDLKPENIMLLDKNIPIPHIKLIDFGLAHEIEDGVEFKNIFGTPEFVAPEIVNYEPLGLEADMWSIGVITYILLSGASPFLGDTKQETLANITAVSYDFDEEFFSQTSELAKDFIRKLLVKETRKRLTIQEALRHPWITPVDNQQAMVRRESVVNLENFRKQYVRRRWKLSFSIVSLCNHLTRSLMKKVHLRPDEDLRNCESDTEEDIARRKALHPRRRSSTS
plurality of kinases (Table 5) (Homo sapiens, UniProt O75716), sequence (O75716 whole entry): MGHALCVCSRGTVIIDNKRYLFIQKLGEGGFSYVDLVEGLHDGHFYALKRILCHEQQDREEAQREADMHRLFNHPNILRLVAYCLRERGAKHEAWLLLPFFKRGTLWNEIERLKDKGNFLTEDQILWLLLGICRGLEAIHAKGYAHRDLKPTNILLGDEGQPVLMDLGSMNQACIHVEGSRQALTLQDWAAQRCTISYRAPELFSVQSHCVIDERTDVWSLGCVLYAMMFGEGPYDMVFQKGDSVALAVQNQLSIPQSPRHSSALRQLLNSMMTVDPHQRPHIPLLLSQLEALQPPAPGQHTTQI
plurality of kinases (Table 5) (Homo sapiens, UniProt P68400), sequence (P68400 whole entry): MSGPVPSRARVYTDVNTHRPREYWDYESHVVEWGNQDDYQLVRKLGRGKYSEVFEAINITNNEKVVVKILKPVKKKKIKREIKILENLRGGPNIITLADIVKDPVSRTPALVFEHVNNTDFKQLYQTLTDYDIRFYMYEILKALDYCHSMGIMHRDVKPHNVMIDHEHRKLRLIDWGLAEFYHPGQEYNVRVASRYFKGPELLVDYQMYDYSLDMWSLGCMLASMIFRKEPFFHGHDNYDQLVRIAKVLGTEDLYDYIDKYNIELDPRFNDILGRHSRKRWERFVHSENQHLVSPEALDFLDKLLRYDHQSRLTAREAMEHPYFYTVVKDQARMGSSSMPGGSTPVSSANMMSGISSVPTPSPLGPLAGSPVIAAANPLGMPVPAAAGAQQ
plurality of kinases (Table 5) (Homo sapiens, UniProt P37173), sequence (P37173 23-567): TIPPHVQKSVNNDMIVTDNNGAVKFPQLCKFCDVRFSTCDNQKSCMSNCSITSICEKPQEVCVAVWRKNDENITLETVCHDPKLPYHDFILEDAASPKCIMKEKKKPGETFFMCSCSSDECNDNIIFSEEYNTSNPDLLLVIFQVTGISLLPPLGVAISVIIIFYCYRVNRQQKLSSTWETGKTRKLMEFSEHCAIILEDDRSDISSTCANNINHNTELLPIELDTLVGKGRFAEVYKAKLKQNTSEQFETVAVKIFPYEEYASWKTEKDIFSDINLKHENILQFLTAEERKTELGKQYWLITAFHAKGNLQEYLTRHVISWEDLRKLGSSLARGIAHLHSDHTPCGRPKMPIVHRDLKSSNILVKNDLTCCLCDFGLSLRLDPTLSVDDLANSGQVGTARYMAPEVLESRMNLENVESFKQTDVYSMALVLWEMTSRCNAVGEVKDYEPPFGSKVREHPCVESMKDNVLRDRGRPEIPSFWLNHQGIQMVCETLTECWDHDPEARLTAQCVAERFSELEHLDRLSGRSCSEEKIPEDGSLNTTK

Compound	Inhibition level, MAP3K3 ([1]; inhibitor 100 uM)	Inhibition level, TGFBR2 ([2]; inhibitor 100 uM)	Inhibition level, DYRK2 ([3]; inhibitor 100 uM)	Inhibition level, STK6 ([4]; inhibitor 100 uM)	Inhibition level, STK16 ([5]; inhibitor 100 uM)	Inhibition level, CSNK2A1 ([6]; plate D9, inhibitor 100 uM)	Inhibition level, DAPK2 ([7]; inhibitor 100 uM)	Inhibition level, BMX [8]	also measured
N#C/C(=C/c1ccc(O)c(O)c1)C(=O)NCc1ccccc1 [AG 490]	2	2	2	2	0	2	2	0	
COc1cc2ncnc(Nc3cccc(Cl)c3)c2cc1OC [AG 1478]	2	2	2	0	0	2	0	1	
O=c1c(-c2ccc(O)cc2)coc2cc(O)cc(O)c12 [Genistein]	2	2	2	2	0	2	2	0	Inhibition level, MAP3K3 ([1]; Genistein <3.7 mM): 2; Inhibition level, TGFBR2 ([2]; Genistein <3.7 mM): 1; Inhibition level, DYRK2 ([3]; Genistein, conc. not given): 1; Inhibition level, STK6 ([4]; Genistein <3.7 mM): 0; Inhibition level, STK16 ([5]; Genistein <3.7 mM): 0; Inhibition level, CSNK2A1 ([6]; plate D9, Genistein, conc. not given): 0; Inhibition level, DAPK2 ([7]; Genistein, conc. not given): 0
O=S(=O)(NCCNC/C=C/c1ccc(Br)cc1)c1cccc2cnccc12 [H-89]	2	2	2	0	2	0	2	1	
CC(C)(C)n1nc(-c2ccc(Cl)cc2)c2c(N)ncnc21 [PP2]	2	2	2	2	2	2	2	2	
O=c1c(O)c(-c2ccc(O)c(O)c2)oc2cc(O)cc(O)c12 [Quercetin]	0	0	2		0		0	0	
Cn1cc(C2=C(c3cn(CCCSC(=N)N)c4ccccc34)C(=O)NC2=O)c2ccccc21 [Ro-31-8220]	0	2	2	2	1	2	2	2	Inhibition level, MAP3K3 ([1]; Ro-31-8220 90 uM): 2; Inhibition level, TGFBR2 ([2]; Ro-31-8220 90 uM): 2; Inhibition level, DYRK2 ([3]; Ro-31-8220, conc. not given): 0; Inhibition level, STK6 ([4]; Ro-31-8220 90 uM): 0; Inhibition level, STK16 ([5]; Ro-31-8220 90 uM): 2; Inhibition level, CSNK2A1 ([6]; plate D9, Ro-31-8220, conc. not given): 0; Inhibition level, DAPK2 ([7]; Ro-31-8220, conc. not given): 2
CC(=O)c1c(O)c(C)c(O)c(Cc2c(O)c3c(c(C(=O)/C=C/c4ccccc4)c2O)OC(C)(C)C=C3)c1O [Rottlerin (Mallotoxin)]	2	2	2	2	0	2	1	1	
CN[C@@H]1C[C@H]2O[C@@](C)([C@@H]1OC)n1c3ccccc3c3c4c(c5c6ccccc6n2c5c31)C(=O)NC4 [Staurosporine]									Inhibition level, MAP3K3 ([1]; Staurosporine 21.5 uM): 2; Inhibition level, TGFBR2 ([2]; Staurosporine 21.5 uM): 2; Inhibition level, STK6 ([4]; Staurosporine 21.5 uM): 0; Inhibition level, STK16 ([5]; Staurosporine 21.5 uM): 2; Inhibition level, CSNK2A1 [6]: 2; Inhibition level, DAPK2 ([7]; Staurosporine, conc. not given): 2
